Assay results from US20160220626A1, “REVERSAL OF INSULIN RESISTANCE AND DYSLIPIDEMIA IN HIGH-FAT DIET-INDUCED OBESE RAT MODELS BY PHYSALIS MINIMA L. EXTRACT” (priority 2015, published 2016).

Key:
Format in all cases: in vivo, male Wistar rats
[1] = test system: high-fat diet-induced obese rats; test: Histopathology of liver (H&E staining, light microscopy); conditions: metformin 150 mg/kg; P. minima 150 and 300 mg/kg; versus pathological control (FIG. 8)
Protocol: (§1) Extract supplementation. […] The HF fed rats were then sub-divided into four groups of three rats each, i.e. Group 1, negative control/pathological control, treated with distilled water; Group 2, positive control, treated with 150 mg/kg of standard drug metformin (Met); Groups 3 and 4, treated groups, received the P. minima extract at doses of 150 and 300 mg/kg, respectively. Normal control rats also received distilled water throughout the treatment for a period of 12 weeks. All the groups, except the control group, were on high-fat diet during the treatment period.
(§2) Blood and tissue collection and sample preparation. For biochemical analysis after 16 weeks of experimental diet, the blood samples were taken from the tail vein after an overnight fast, whereas after 12 weeks of treatment period, rats were subjected to anesthesia and blood was drawn by cardiac puncture. Liver and pancreas samples were prepared and stained with hematoxylin and eosin, as described by Castro and co-workers. The liver was excised and fixed in buffered formalin. The sectioned liver tissue segments were stained with hematoxylin-eosin (H-E) and observed under light microscope.

[2] = test system: high-fat diet-induced obese rats; test: Renal toxicity assessment after 12 weeks of treatment; conditions: serum, 150 mg/kg, mean ± SE
Protocol: as §1
Blood and tissue collection and sample preparation. For biochemical analysis after 16 weeks of experimental diet, the blood samples were taken from the tail vein after an overnight fast, whereas after 12 weeks of treatment period, rats were subjected to anesthesia and blood was drawn by cardiac puncture. […]
Biochemical measurements. […] Fasting blood glucose levels were measured using glucometer (Accu Chek Performa, Australia). Fasting insulin levels were quantified using ultra sensitive rat insulin ELISA kit (Crystal Chem, Downers Grove, USA). Insulin sensitivity was evaluated using Homeostatic Model Assessment (HOMA). Serum total cholesterol, triglycerides, HDL, LDL, VLDL, urea, creatnine, AST, ALP, SGPT, and direct and total bilirubins were analysed using automatic analyser (Hitachi, Roche Diagnostics 902, Tokyo, Japan). […]

[3] = test system: insulin resistant high-fat diet-induced obese rats; test: Extract supplementation in insulin resistant high-fat diet-induced obese rats: body weight, food intake, lipid profile, insulin resistance
Protocol: as §1
as §2, with “The sectioned liver tissue segments were stained with hematoxylin-eosin (H-E) and observed under light microscope.” left out
Biochemical measurements. […] Fasting blood glucose levels were measured using glucometer (Accu Chek Performa, Australia). Fasting insulin levels were quantified using ultra sensitive rat insulin ELISA kit (Crystal Chem, Downers Grove, USA). Insulin sensitivity was evaluated using Homeostatic Model Assessment (HOMA).

[4] = test system: high-fat diet-induced obese rats; test: Liver toxicity assessment after 12 weeks of treatment; conditions: serum, 150 mg/kg, mean ± SE
Protocol: as §1, §2
Biochemical measurements. Blood glucose, serum insulin, total cholesterol, triglycerides, HDL, LDL, very low density lipoproteins ([…]), urea, creatnine, aspartate aminotransferase ([…]), alkaline phosphatase (ALP), serum glutamic pyruvic transaminase (SGPT), and direct and total bilirubin were estimated. Fasting blood glucose levels were measured using glucometer (Accu Chek Performa, Australia). Fasting insulin levels were quantified using ultra sensitive rat insulin ELISA kit (Crystal Chem, Downers Grove, USA). Insulin sensitivity was evaluated using Homeostatic Model Assessment (HOMA). Serum total cholesterol, triglycerides, HDL, LDL, VLDL, urea, creatnine, AST, ALP, SGPT, and direct and total bilirubins were analysed using automatic analyser (Hitachi, Roche Diagnostics 902, Tokyo, Japan).
Evaluation of renal and liver toxicity of P. minima extract: Serum urea, creatnine, aspartate aminotransferase ([…]), alkaline phosphatase (ALP), serum glutamic pyruvic transaminase (SGPT), and total and direct bilirubins were measured to evaluate the toxicity of P. minima towards liver and kidney.

CN(C)C(=N)N=C(N)N [Metformin]
hepatic steatosis (liver morphology, H&E) [1]: reversed the condition to the normal
Creatnine [2]: 0.35 ± 0 mg/dL
Urea [2]: 31 ± 0 mg/dL
reduction in body weights ([3]; 150 mg/kg daily, 12 weeks, on high-fat diet, pathological control gained about 109 g, control 75 g): ~35 g
average food intake ([3]; supplemented groups, 12 weeks of treatment, high-fat diet rats): Decrease
ALP [4]: 49.5 ± 1.5 U/L
AST (aspartate aminotransferase) [4]: 1.5 ± 0.5 U/L
Direct bilirubin [4]: 0.02 ± 0 mg/dL
SGPT [4]: 48.5 ± 1.5 U/L
Total bilirubin [4]: 0.275 ± 0.025 mg/dL
